Experimental data from ChEMBL document CHEMBL1201862, “PubChem BioAssay data set” (2004).
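Compound exposure: 48 hours, 5 concentrations, 96-well plates. GI50: concentration for 50% inhibition of growth.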 The source made the active and inactive calls. Cut-off read from the data, not from the text of the source: active = GI50 up to about 1.1 µM and inactive = higher.

Tests used:
Assay in all cases: NCI-60 cell line screen, 48 h
[1] = test system: OVCAR-5
[2] = test system: NCI-H23
[3] = test system: SN12C
[4] = test system: K562
[5] = test system: OVCAR-3
[6] = test system: HCT-116
[7] = test system: Hs-578T
[8] = test system: T47D
[9] = test system: MDA-MB-231
[10] = test system: SW-620
[11] = test system: NCI/ADR-RES
[12] = test system: UO-31
[13] = test system: NCI-H460
[14] = test system: MOLT-4
[15] = test system: SR
[16] = test system: SF-295
[17] = test system: HOP-92
[18] = test system: A549
[19] = test system: BT-549
[20] = test system: SF-268
[21] = test system: MCF7
[22] = test system: ACHN
[23] = test system: OVCAR-8
[24] = test system: EKVX
[25] = test system: PC-3
[26] = test system: MDA-N
[27] = test system: SK-MEL-28
[28] = test system: HCC 2998
[29] = test system: HL-60
[30] = test system: UACC-62
[31] = test system: RPMI-8226
[32] = test system: HCT-15
[33] = test system: 786-0
[34] = test system: SNB-75
[35] = test system: UACC-257
[36] = test system: SK-OV-3
[37] = test system: CCRF-CEM
[38] = test system: Malme-3M
[39] = test system: SK-MEL-2
[40] = test system: DU-145
[41] = test system: TK-10
[42] = test system: MDA-MB-435
[43] = test system: RXF 393
[44] = test system: COLO 205
[45] = test system: OVCAR-4
[46] = test system: HT-29
[47] = test system: KM12
[48] = test system: SF-539
[49] = test system: A498
[50] = test system: M14
[51] = test system: NCI-H522
[52] = test system: NCI-H226
[53] = test system: SK-MEL-5
[54] = test system: CAKI-1
[55] = test system: U-251
[56] = test system: HOP-62
[57] = test system: SNB-19
[58] = test system: LOX IMVI
[59] = test system: IGROV-1
[60] = test system: DMS-273
[61] = test system: SNB-78
[62] = test system: LXFL 529
[63] = test system: DLD-1
[64] = test system: M19-MEL
[65] = test system: DMS-114
[66] = test system: KM-20L2
[67] = test system: HOP-18

## CC(C)=NNc1ncnc2[nH]cnc12
[1]
  GI50: 4.65 µM (inactive)
[2]
  GI50: 29.6 µM (inactive)
[3]
  GI50: 14.5 µM (inactive)
[4]
  GI50: > 19.6 µM (inactive)
[5]
  GI50: 5.78 µM (inactive)
[6]
  GI50: 3.71 µM (inactive)
[7]
  GI50: 11.8 µM (inactive)
[8]
  GI50: 11.2 µM (inactive)
[9]
  GI50: 6.95 µM (inactive)
[10]
  GI50: 11.9 µM (inactive)
[11]
  GI50: 5.01 µM (inactive)
[12]
  GI50: 3.21 µM (inactive)
[13]
  GI50: 7.06 µM (inactive)
[14]
  GI50: 9.06 µM (inactive)
[15]
  GI50: 4.69 µM (inactive)
[16]
  GI50: 8.55 µM (inactive)
[17]
  GI50: 16.9 µM (inactive)
[18]
  GI50: 4.89 µM (inactive)
[19]
  GI50: 48.1 µM (inactive)
[20]
  GI50: 7.89 µM (inactive)
[21]
  GI50: 4.07 µM (inactive)
[22]
  GI50: 5.7 µM (inactive)
[23]
  GI50: 5.55 µM (inactive)
[24]
  GI50: 12.9 µM (inactive)
[25]
  GI50: 9.04 µM (inactive)
[26]
  GI50: 8.79 µM (inactive)
[27]
  GI50: 63 µM (inactive)
[28]
  GI50: 5.04 µM (inactive)
[29]
  GI50: 3.71 µM (inactive)
[30]
  GI50: 2.68 µM (inactive)
[31]
  GI50: 4.83 µM (inactive)
[32]
  GI50: 6.01 µM
[33]
  GI50: 5.83 µM (inactive)
[34]
  GI50: 18.2 µM (inactive)
[35]
  GI50: 10 µM (inactive)
[36]
  GI50: 3.88 µM (inactive)
[37]
  GI50: 4.9 µM (inactive)
[38]
  GI50: 49.7 µM (inactive)
[39]
  GI50: 3.82 µM (inactive)
[40]
  GI50: 3.85 µM (inactive)
[41]
  GI50: 4.9 µM (inactive)
[42]
  GI50: 6.87 µM (inactive)
[43]
  GI50: 6.87 µM (inactive)
[44]
  GI50: 5.94 µM (inactive)
[45]
  GI50: 9.95 µM (inactive)
[46]
  GI50: 6.04 µM (inactive)
[47]
  GI50: 5.33 µM (inactive)
[48]
  GI50: 36.4 µM (inactive)
[49]
  GI50: 5.07 µM (inactive)
[50]
  GI50: 4.65 µM (inactive)
[51]
  GI50: 2.86 µM (inactive)
[52]
  GI50: 12 µM (inactive)
[53]
  GI50: 14.5 µM (inactive)
[54]
  GI50: 3.66 µM (inactive)
[55]
  GI50: 20.4 µM (inactive)
[56]
  GI50: 5.12 µM (inactive)
[57]
  GI50: 45.5 µM (inactive)
[58]
  GI50: 4.78 µM (inactive)
[59]
  GI50: 7.82 µM (inactive)

## CCCSc1nc(COC(=O)NC)c(COC(=O)NC)n1C
[2]
  GI50: 54.2 µM (inactive)
[3]
  GI50: 88.7 µM (inactive)
[4]
  GI50: 46.2 µM (inactive)
[60]
  GI50: 48.9 µM (inactive)
[12]
  GI50: 57.1 µM (inactive)
[13]
  GI50: 39.7 µM (inactive)
[14]
  GI50: 21.2 µM (inactive)
[15]
  GI50: 29.4 µM (inactive)
[17]
  GI50: 56 µM (inactive)
[61]
  GI50: 63.2 µM (inactive)
[22]
  GI50: 23.9 µM (inactive)
[27]
  GI50: > 100 µM (inactive)
[29]
  GI50: 29.4 µM (inactive)
[30]
  GI50: 80.2 µM (inactive)
[31]
  GI50: 25 µM (inactive)
[33]
  GI50: 69.5 µM (inactive)
[34]
  GI50: 49 µM (inactive)
[62]
  GI50: 36.3 µM (inactive)
[37]
  GI50: 29.6 µM (inactive)
[38]
  GI50: 86.5 µM (inactive)
[39]
  GI50: 53.2 µM (inactive)
[63]
  GI50: > 100 µM (inactive)
[45]
  GI50: 93.3 µM (inactive)
[48]
  GI50: 64.1 µM (inactive)
[49]
  GI50: 46 µM (inactive)
[50]
  GI50: > 100 µM (inactive)
[54]
  GI50: 32.8 µM (inactive)
[55]
  GI50: 98.2 µM (inactive)
[64]
  GI50: 88.1 µM (inactive)
[56]
  GI50: 80.7 µM (inactive)
[65]
  GI50: 58.2 µM (inactive)

## O=C(O)/C=C/c1c[nH]c(=O)[nH]c1=O
[2]
  GI50: > 500 µM (inactive)
[4]
  GI50: > 500 µM (inactive)
[60]
  GI50: > 500 µM (inactive)
[11]
  GI50: > 344 µM (inactive)
[66]
  GI50: > 500 µM (inactive)
[14]
  GI50: > 281 µM (inactive)
[16]
  GI50: > 232 µM (inactive)
[18]
  GI50: > 500 µM (inactive)
[21]
  GI50: > 500 µM (inactive)
[67]
  GI50: > 500 µM (inactive)
[29]
  GI50: > 446 µM (inactive)
[34]
  GI50: > 500 µM (inactive)
[36]
  GI50: > 500 µM (inactive)
[37]
  GI50: > 316 µM (inactive)
[52]
  GI50: 489 µM (inactive)
[54]
  GI50: > 500 µM (inactive)
[64]
  GI50: > 500 µM (inactive)
[65]
  GI50: > 500 µM (inactive)
